Laboratory results: US12337000B2, “Therapeutic modulators of the reverse mode of ATP synthase” (priority 2017, dated 2025)
“Also recorded” adds a separate entry of the source. Where a name gives a salt, the structure may show the parent alone. Read-outs that look alike come from different tables or passages of the source.

Legend:
[1] = target: T1, F1F0 ATP hydrolase (Bos taurus, UniProt P00829+P19483); conditions: cited from earlier work
T1 construct: from tissue; host or cells: sub-mitochondrial particles (SMPs)

[2] = test system: 59 cancer cell lines (NCI-60); assay: NCI-60 one-dose in vitro assay; format: cell-based, human
Excerpt: FIGS. 1, 2, 3, 4, 5, 6, 7, 8 show results from the NCI-60 one-dose in vitro assay at the Developmental Therapeutics Program (DTP), at the National Cancer Institute (NCI, Bethesda, MD, USA). Its protocol is well known to those of the art, and it tests the effect, if any, of a test compound on the growth/survivability of a cancer cell line as compared to the no compound control. […] However, a constant is that there is always representative cell lines from leukemia, melanoma and cancers of the lung, colon, brain, ovary, breast, prostate and kidney. In a one-dose NCI compound test report, NCI report a number for each cell line, which they call “Growth Percent”, which is its growth relative to the no-compound control, and relative to the time zero number of cells. This reported parameter allows detection of both growth inhibition (values between 0 and 100) and lethality (values less than 0). For example, an NCI “Growth Percent” value of 100 means no growth inhibition. Value of 40 means 60% growth inhibition. Value of 0 means no net growth over the course of the experiment. Value of −40 means 60% lethality. Value of −100 means all cells are dead. I don't present NCI one-dose data in this original format. Instead, if the NCI “Growth Percent” value for a cell is positive, it is manipulated: [100 minus this original NCI-60 “Growth Percent” data point], to yield the percentage “Growth Inhibition”. If the original NCI “Growth Percent” value for a cell is negative, it is made positive to be the percentage of original cancer cells (at time zero) killed: “Percentage Killed” {and in these cases, of course, all growth has been inhibited, so percentage “Growth Inhibition” is then specified to be 100% for this cancer cell line}. In my one-dose figures, “Growth Inhibition” (0-100%) is presented on the x-axis and, if applicable, “Percentage Killed” (0-100%) further along on the x-axis. The latter is applicable when there is not just cancer growth inhibition but a reduction in the number of cancer cells from the start time i.e. when the compound is not merely slowing cancer growth, but is actively reducing the number of cancer cells from the starting number. In cases where there is only growth inhibition, only “Growth inhibition” is presented on the x-axis.
NCI-60 tests are performed at a controlled temperature of 37° C..
To perform the anti-cancer testing reported: BMS-199264 hydrochloride was purchased from Sigma-Aldrich. BTB06584 was purchased from AdooQ Bioscience, Irvine, CA, USA. Compounds 19a (separated into 6a and 6b stereoisomers) and 31 were synthesized by reaction schemes disclosed herein. Almitrine dimesylate was purchased from Ak Scientific, Palo Alto, CA, USA.

[3] = target: T2, F1F0-ATP hydrolysis (Homo sapiens, UniProt P06576+P25705); conditions: cited from earlier work
T2 construct: BTB06584 potency information (is not an EC50) is from a whole cell study [13]; endogenous in cells

[4] = cited from earlier work
[5] = cited from earlier work; remark: listed apart in the source
[6] = from [8], Formula (II), read-out: EC50 F1F0 ATP hydrolase

| Structure (SMILES) | EC50 [1, 6] [nM] | further results |
| --- | --- | --- |
| O=S(=O)(c1cc(Cl)ccc1Cl)N1Cc2ccccc2N(Cc2cnc[nH]2)C(CCc2ccccc2)C1 (centres unmarked) [2,5-di-Cl—Ph, SO2,5-yl] | 158 |  |
| N#CN=C(Nc1ccccc1Cl)NC(Cn1ccnc1)c1ccc(Cl)cc1Cl (centres unmarked) [2-Cl, CN] |  | EC50 ([1]; Further Examples [5], Formula (I), read-out: EC50 F1F0 ATP hydrolase): 2230 nM |
| N#Cc1ccc(S(=O)(=O)N2Cc3ccccc3N(Cc3c[nH]cn3)C(CCc3ccccc3)C2)c(Cl)c1 (centres unmarked) [2-Cl-4-CN—Ph, SO2,5-yl] | 939 |  |
| O=[N+]([O-])c1cccc(S(=O)(=O)N2Cc3ccccc3N(Cc3cnc[nH]3)C(CCc3ccccc3)C2)c1 (centres unmarked) [3-NO2—Ph, SO2,5-yl] | 423 |  |
| N#Cc1ccc(S(=O)(=O)N2Cc3ccccc3N(Cc3cnc[nH]3)C(CCc3ccccc3)C2)cc1 (centres unmarked) [4-CN—Ph, SO2,5-yl] | 255 |  |
| Cc1nc(CN2c3ccccc3CN(S(=O)(=O)c3ccc(F)cc3)CC2CCc2ccccc2)c[nH]1 (centres unmarked) [4-F—Ph, SO2,2-Me-5-yl] | 9620 |  |
| Cc1nc[nH]c1CN1c2ccccc2CN(S(=O)(=O)c2ccc(F)cc2)CC1CCc1ccccc1 (centres unmarked) [4-F—Ph, SO2,4-Me-5-yl] | 151 |  |
| O=S(=O)(c1ccc(F)cc1)N1Cc2ccccc2N(Cc2c[nH]cn2)C(CCc2ccccc2)C1 (centres unmarked) [4-F—Ph, SO2,5-yl] | 221 |  |
| O=S(=O)(c1ccc(O)cc1)N1Cc2ccccc2N(Cc2cnc[nH]2)C(CCc2ccccc2)C1 (centres unmarked) [4-OH—Ph, SO2,5-yl] | 667 |  |
| COc1ccc(S(=O)(=O)N2Cc3ccccc3N(Cc3c[nH]cn3)C(CCc3ccccc3)C2)cc1 (centres unmarked) [4-OMe—Ph, SO2,5-yl] | 77 |  |
| Cc1nc[nH]c1CN1c2ccccc2CN(Cc2ccc(C(C)(C)C)cc2)CC1CCc1ccccc1 (centres unmarked) [4-t-Bu—Ph, CH2,4-Me-5-yl] | 2350 |  |
| CC(C)(C)c1ccc(CN2Cc3ccccc3N(Cc3cnc[nH]3)C(CCc3ccccc3)C2)cc1 (centres unmarked) [4-t-Bu—Ph, CH2,5-yl] | 2140 |  |
| CC(C)(C)c1ccc(S(=O)(=O)N2Cc3ccccc3N(Cc3ncc[nH]3)C(CCc3ccccc3)C2)cc1 (centres unmarked) [4-t-Bu—Ph, SO2,2-yl] | > 10000 |  |
| CC(C)(C)c1ccc(S(=O)(=O)N2Cc3ccccc3N(Cc3c[nH]cn3)C(CCc3ccccc3)C2)cc1 (centres unmarked) [4-t-Bu—Ph, SO2,5-yl] | 8 |  |
| CC1(C)Oc2ccc(S(=O)(=O)N3CCCCC3)cc2[C@@H](N(Cc2ncc[nH]2)c2ccc(Cl)cc2)[C@@H]1O.Cl [BMS-199264 hydrochloride] |  | anti-cancer activity (in words) ([2]; 10 μM): Anti-cancer activity; anti-cancer activity (in words) ([2]; 100 μM): Anti-cancer activity |
| O=C(Oc1cc(S(=O)(=O)c2ccccc2)ccc1[N+](=O)O)c1ccc(Cl)cc1 [BTB06584] |  | anti-cancer activity (in words) ([2]; 10 μM): none and No anti-cancer activity; anti-cancer activity (in words) ([2]; 100 μM): observed; also recorded: Anti-cancer activity; inhibitory potency for F1F0-ATP hydrolysis (in words) ([3]; 10 μM [13]): none; concentration required to inhibit F1F0-ATP hydrolysis ([3]; whole cell study [13], not an EC50): > 100 µM |
| O=S(=O)(c1cccc2nonc12)N1Cc2ccccc2N(Cc2cnc[nH]2)C(CCc2ccccc2)C1 (centres unmarked) [Benzofurazan-7-yl, SO2,5-yl] | 1780 |  |
| O=S(=O)(Cc1ccccc1)N1Cc2ccccc2N(Cc2c[nH]cn2)C(CCc2ccccc2)C1 (centres unmarked) [Bn, SO2,5-yl] | 2410 |  |
| O=S(=O)(N1Cc2ccccc2N(Cc2c[nH]cn2)C(CCc2ccccc2)C1)C(F)(F)F (centres unmarked) [CF3, SO2,5-yl] | 77 |  |
| N#Cc1cccc(C(=O)/N=C(\Nc2ccc(Cl)cc2)NC(Cn2ccnc2)c2ccc(Cl)cc2Cl)c1 (centres unmarked) [Compound 19a] |  | EC50 ([1]; SMP studies in [5-8], read-out: EC50 F1F0 ATP hydrolysis / hydrolase): 33 nM |
| O=S(=O)(c1cccc2ccccc12)N1Cc2ccccc2N(Cc2cnc[nH]2)C(CCc2ccccc2)C1 (centres unmarked) [Naphth-1-y1, SO2,5-yl] | 338 |  |
| O=S(=O)(c1ccccc1)N1Cc2ccccc2N(Cc2cnc[nH]2)C(CCc2ccccc2)C1 (centres unmarked) [Ph, SO2,5-yl] | 282 |  |
| O=S(=O)(c1cccc2cccnc12)N1Cc2ccccc2N(Cc2c[nH]cn2)C(CCc2ccccc2)C1 (centres unmarked) [Quinolin-8-yl, SO2,5-yl] | 2930 |  |
| O=S(=O)(c1cccs1)N1Cc2ccccc2N(Cc2cnc[nH]2)C(CCc2ccccc2)C1 (centres unmarked) [Thiophen-2-yl, SO2,5-yl] | 636 |  |
| N.N.O=C([O-])C1(C(=O)[O-])CCC1.[Pt+2] [carboplatin] |  | LD50 ([4]; mice, intraperitoneal injection (IP)): 118 mg/kg |
| CN(C)CCCN1c2ccccc2CCc2ccc(Cl)cc21 [clomipramine HCl] |  | LD50 {mouse, IV} ([4]; mouse, in vivo, iv): 22 mg/kg |
| CC[C@H]1/C=C/C=C/C[C@@H](C)[C@H](O)[C@@](C)(O)C(=O)[C@@H](C)[C@H](O)[C@@H](C)C(=O)[C@@H](C)[C@H](O)[C@@H](C)/C=C/C(=O)O[C@@H]2[C@H](C)[C@H](CC1)O[C@]1(CC[C@H](C)[C@H](C[C@@H](C)O)O1)[C@H]2C [oligomycin] |  | time within which healthy rats are killed ([5]; 1 mg/kg intraperitoneal, n=10 [15]): ≤ 48 h; LD33 ([5]; healthy rats, intraperitoneal injection [15]): 0.5 mg/kg |
